Experimental data taken from patent publication US8956824B2, “Methods for identifying allosteric modulators of ship polypeptides” (British Columbia Cancer Agency Branch, priority 2006, dated 2015).
“Also recorded” adds a separate entry of the source.

Biological target: T1, SHIP1 enzyme (Mus musculus, UniProt Q9ES52)
T1 construct: Full length, wild-type SHIP1 enzyme (wt); made in house; host or cells: 293T cells, transient transfection with pME18S-His-SHIP
T1 sequence (Q9ES52 1-1191): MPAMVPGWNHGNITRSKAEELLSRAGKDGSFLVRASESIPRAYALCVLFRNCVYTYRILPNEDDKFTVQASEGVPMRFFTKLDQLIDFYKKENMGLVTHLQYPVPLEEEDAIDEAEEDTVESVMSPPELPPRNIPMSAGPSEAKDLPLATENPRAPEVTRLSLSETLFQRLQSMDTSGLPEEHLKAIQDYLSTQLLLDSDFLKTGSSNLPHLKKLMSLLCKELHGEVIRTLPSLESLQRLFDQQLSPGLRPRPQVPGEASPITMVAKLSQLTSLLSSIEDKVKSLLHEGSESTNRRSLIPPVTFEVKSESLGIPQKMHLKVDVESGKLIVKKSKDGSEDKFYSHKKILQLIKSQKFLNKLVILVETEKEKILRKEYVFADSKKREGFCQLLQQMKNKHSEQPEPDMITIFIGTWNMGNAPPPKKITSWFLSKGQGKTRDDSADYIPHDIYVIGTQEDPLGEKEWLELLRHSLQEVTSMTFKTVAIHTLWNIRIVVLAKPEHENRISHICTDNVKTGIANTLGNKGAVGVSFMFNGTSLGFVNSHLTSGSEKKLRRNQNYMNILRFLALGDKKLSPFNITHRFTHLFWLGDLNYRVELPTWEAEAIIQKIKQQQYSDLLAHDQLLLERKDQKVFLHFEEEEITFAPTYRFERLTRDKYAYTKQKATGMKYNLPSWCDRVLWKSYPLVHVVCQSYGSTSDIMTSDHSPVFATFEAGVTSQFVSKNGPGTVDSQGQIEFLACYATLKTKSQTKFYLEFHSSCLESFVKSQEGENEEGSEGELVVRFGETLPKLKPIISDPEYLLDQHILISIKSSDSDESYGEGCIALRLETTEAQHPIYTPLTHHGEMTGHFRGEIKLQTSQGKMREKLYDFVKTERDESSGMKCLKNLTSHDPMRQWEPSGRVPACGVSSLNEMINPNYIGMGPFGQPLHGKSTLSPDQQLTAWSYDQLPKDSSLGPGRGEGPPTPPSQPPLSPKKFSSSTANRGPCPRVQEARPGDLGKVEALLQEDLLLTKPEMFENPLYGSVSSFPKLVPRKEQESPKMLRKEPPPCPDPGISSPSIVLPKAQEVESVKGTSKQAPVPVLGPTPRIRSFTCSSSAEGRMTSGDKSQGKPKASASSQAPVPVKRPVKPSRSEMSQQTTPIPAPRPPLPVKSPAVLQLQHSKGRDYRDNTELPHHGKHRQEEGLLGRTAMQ
Assay: In vitro SHIP enzyme assay, wild-type SHIP1
Assay type: biochemical
Settings: for SHIP1 enzyme activity in vitro (activation): FIG. 1A / 3B; for activation of wild-type SHIP1 enzyme by allosteric activators: PI-3,4-P2 20 μM, AQX-MN100 80 μg/mL=250 μM, 30 μM IP4, FIG. 4B
Excerpt: Production of recombinant SHIP1 enzyme and SHIP1 C2 and PH domains: Recombinant, N-terminal His6 tagged SHIP1 enzyme was expressed in mammalian 293T cells by transient transfection with pME18S-His-SHIP plasmid and purified to >95% homogeneity by Nichelating bead chromatography (Qiagen, Mississauga, Ontario) as assessed by Coomassie Blue visualization of sodium dodecyl sulfate-polyacrylamide gel electrophoresis (SDS-PAGE) separated material. Recombinant SHIP1 C2 domain (amino acid residues 725 to 863) or SHIP1 PH domain (amino acid residues 984-1319) were expressed in E. coli transformed with a pET28C expression vector constructed as described herein. Cultures were induced overnight with 1 mM IPTG, and protein purified from the cell lysates by Ni-chelating bead chromatography was >95% pure by SDS-PAGE analysis.
In vitro SHIP enzyme assay. The SHIP enzyme assay was performed in 96-well microtitre plates with 10 ng of enzyme/well in a total volume of 25 μL of 20 mM Tris HCl, pH 7.5 and 10 mM MgCl2. […] The reaction was allowed to proceed for 20 min at 37° C. and the amount of inorganic phosphate released assessed by the addition of Malachite Green reagent followed by an absorbance measurement at 650 nm (15). SHIP2 enzyme was purchased from Echelon Biosciences (Salt Lake City, Utah) and an equivalent amount of inositol phosphatase activity was used in the in vitro enzyme assay. Enzyme data are expressed as the mean of triplicates+/−SEM. Experiments were performed at least 3 times.

Cc1cc(O)c(O)c2c1[C@]1(C)CC[C@H]3C(C)(C)CCC[C@]3(C)[C@H]1C2 [AQX-016A]
activation of SHIP1 relative to Pelorol (40 μg/mL, FIG. 1A): 3 fold
SHIP1 enzyme activity in vitro (activation): increases SHIN enzyme activity in vitro and in vivo

Cc1cc(O)cc2c1[C@]1(C)CC[C@H]3C(C)(C)CCC[C@]3(C)[C@H]1C2 [AQX-MN100]
enhancement of SHIP1 enzyme activity (% change relative to vehicle control, 2 μM final concentration, FIGS. 8A-B): ~500%
SHIP1 enzyme activity in vitro (activation): enhanced SHIP1 enzyme activity in vitro; also recorded: activates SHIP enzyme activity in vitro
activation of wild-type SHIP1 enzyme by allosteric activators: activated SHIP to the same extent; also recorded: enhanced

phosphatidylinositol-3,4-bisphosphate [PI-3,4-P2, reference compound]
activation of wild-type SHIP1 enzyme by allosteric activators: activated SHIP to the same extent as AQX-MN100
activation of wild-type SHIP1 enzyme by allosteric activators (listed as PI(3,4)P2): enhanced
